Measurements from US20130324489A1, “NEW ANTIFUNGAL COMPOSITIONS” (DSM IP ASSETS B.V., priority 2011, published 2013).

How the values were obtained:
[1] = tested on: Botrytis cinerea; assay: In vitro antifungal activity, 96-well microtiter plates; type: cell-based; conditions: 1.25 ppm natamycin, 25° C.
Description: The following compositions were tested: […] After incubation of the microtiter plates at 25° C., the in vitro antifungal activity (%) of the individual active ingredients was assessed by calculating the reduction in mould growth observed in the presence of the active ingredient in comparison to the mould growth observed in the absence of the active ingredient. The expected antifungal activity (E in %) of the active ingredient combination was calculated according to the Colby equation (Colby, 1967): […] wherein X and Y are the observed antifungal activities (in %) of the individual active ingredients X and Y, respectively.

[2] = tested on: Penicillium italicum; assay: as above; type: cell-based; conditions: 0.63 ppm natamycin, 5.0 ppm vinclozolin, 10 ppm procymidone, alone or natamycin + one of them, 25° C., day 3
Description: Subsequently, 100 μl of a Botrytis cinerea suspension prepared in PCB medium was used to inoculated each well with 2.5×10^3 spores/ml.
After incubation of the microtiter plates at 25° C., the in vitro antifungal activity (%) of the individual active ingredients was assessed by calculating the reduction in mould growth observed in the presence of the active ingredient in comparison to the mould growth observed in the absence of the active ingredient. The expected antifungal activity (E in %) of the active ingredient combination was calculated according to the Colby equation (Colby, 1967): […]
wherein X and Y are the observed antifungal activities (in %) of the individual active ingredients X and Y, respectively. If the observed antifungal activity (O in %) of the combination exceeds the expected antifungal activity (E in %) of the combination and the resulting synergy factor O/E is thus >1.0, the combined application of the active ingredients leads to a synergistic antifungal effect.
The experiment was conducted as described in Example 10, except for the fact that the following compositions were tested:
Furthermore, Penicillium italicum was used for inoculation. The antifungal activity (in %) of the individual and combined active ingredients was determined according to the method described in Example 10.

Structure (SMILES)	Observed antifungal activity O (%) ([1]; 1.5 ppm vinclozolin, 1.25 ppm procymidone, alone or natamycin + one of them, day 3)	Observed antifungal activity O (%) ([1]; 1.5 ppm vinclozolin, 1.25 ppm procymidone, alone or natamycin + one of them, day 6)	Observed antifungal activity O (%) ([1]; 7.0 ppm vinclozolin, 2.0 ppm procymidone, alone or natamycin + one of them, day 10)	Observed antifungal activity O (%) [2] [%]	Observed antifungal activity O (%) ([1]; 3.0 ppm iprodione or both, day 5)	Observed antifungal activity O (%) ([1]; 8.0 ppm iprodione or both, day 12)
C=CC1(C)OC(=O)N(c2cc(Cl)cc(Cl)c2)C1=O (stereo not drawn) [Vinclozolin, vinclozolin]	0	0	0	0	–	–
CC(C)NC(=O)N1CC(=O)N(c2cc(Cl)cc(Cl)c2)C1=O [Iprodione, iprodione]	–	–	–	–	50	50
